AC50, IC50 and EC50 data for 29 compounds are collected here from ChEMBL document CHEMBL1201862, “PubChem BioAssay data set” (2004).

Among the targets are Cytochrome P450 2C9 (Homo sapiens, UniProt P11712); Cytochrome P450 2D6 (Homo sapiens, UniProt P10635); Cytochrome P450 3A4 (Homo sapiens, UniProt P08684).
The next assay addresses Cytochrome P450 2C19 (Homo sapiens, UniProt P33261). Kind of assay: Cytochrome panel assay with activity outcomes. Panel member name: p450-cyp2c19 Compounds with AC50 equal or less than 10 uM are considered active. Type of assay: functional. Particulars: read-out: AC50.
The subject of a further assay is H9c2. Kind of assay: cells. Format: functional, cell-based. Particulars: Rattus norvegicus, H9c2, Myocardium.
The target in another assay is T1, Cytochrome P450 1A2 (Homo sapiens, UniProt P05177).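 Further: PubChem cytochrome P450 panel assay, CYP1A2 panel member.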
T1 sequence (P05177 whole entry): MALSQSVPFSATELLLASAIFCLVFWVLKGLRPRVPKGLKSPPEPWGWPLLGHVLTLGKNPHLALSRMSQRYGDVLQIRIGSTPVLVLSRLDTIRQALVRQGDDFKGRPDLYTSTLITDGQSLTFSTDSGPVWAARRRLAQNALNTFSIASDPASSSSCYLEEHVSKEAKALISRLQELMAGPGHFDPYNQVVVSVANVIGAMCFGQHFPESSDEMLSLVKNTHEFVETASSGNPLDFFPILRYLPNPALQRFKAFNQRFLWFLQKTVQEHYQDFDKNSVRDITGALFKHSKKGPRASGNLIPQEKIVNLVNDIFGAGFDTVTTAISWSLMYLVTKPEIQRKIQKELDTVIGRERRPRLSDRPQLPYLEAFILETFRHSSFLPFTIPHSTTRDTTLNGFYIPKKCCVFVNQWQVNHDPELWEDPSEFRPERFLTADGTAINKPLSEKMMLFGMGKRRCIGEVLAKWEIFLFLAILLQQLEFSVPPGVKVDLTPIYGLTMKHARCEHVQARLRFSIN

Assay [1] deals with T2, Replicative DNA helicase DnaB (Mycobacterium tuberculosis, UniProt P9WMR3).
T2 sequence (P9WMR3 whole entry): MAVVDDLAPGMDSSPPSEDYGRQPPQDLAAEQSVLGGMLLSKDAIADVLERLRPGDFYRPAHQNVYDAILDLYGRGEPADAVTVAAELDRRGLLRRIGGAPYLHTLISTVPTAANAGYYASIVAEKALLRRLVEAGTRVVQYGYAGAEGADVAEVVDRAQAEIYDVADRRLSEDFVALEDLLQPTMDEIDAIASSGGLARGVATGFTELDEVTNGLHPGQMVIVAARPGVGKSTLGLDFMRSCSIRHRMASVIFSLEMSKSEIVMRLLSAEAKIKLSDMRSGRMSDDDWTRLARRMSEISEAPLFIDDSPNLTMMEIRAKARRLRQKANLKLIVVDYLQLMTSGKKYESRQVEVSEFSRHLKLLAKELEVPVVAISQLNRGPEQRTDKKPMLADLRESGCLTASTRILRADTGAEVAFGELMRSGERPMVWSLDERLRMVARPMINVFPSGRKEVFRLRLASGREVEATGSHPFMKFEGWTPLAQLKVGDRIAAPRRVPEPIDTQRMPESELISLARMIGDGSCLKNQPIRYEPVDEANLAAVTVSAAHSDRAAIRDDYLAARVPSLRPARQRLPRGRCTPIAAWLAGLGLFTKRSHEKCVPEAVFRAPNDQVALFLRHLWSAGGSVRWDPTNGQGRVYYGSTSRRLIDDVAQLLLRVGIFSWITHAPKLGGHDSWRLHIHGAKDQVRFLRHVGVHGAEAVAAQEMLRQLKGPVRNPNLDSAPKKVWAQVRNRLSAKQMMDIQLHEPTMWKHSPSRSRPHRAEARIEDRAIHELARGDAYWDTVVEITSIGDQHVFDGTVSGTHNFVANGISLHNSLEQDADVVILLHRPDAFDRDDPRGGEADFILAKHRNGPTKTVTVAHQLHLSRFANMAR
Kind of assay: DnaB intein splicing inhibitors, dose response, biochemical, cell-free fluorescence (AID 449749). Format: functional.

The target of assay [2] is T3, Fatty acid synthase (Homo sapiens, UniProt P49327). Description: inhibition of human FAS-TE enzyme activity – biochemical, endpoint fluorescence intensity, uHTS hits, dose response (AID 624327).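 Further: fluorescence from hydrolysis of an O-methyl fluorescein acyl ester substrate by the enzyme.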 Format: functional.
Assay [3] addresses T3, Fatty acid synthase. Kind of assay: inhibition of human FAS-TE enzyme activity – biochemical, kinetic fluorescence intensity, dose response (AID 624326).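 Further: rate of fluorescence rise from hydrolysis of a fluorogenic O-methyl fluorescein ester substrate.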 Type of assay: functional.
The target in another assay is T4, Protein RecA (Mycobacterium tuberculosis, UniProt P9WHJ3).
T4 sequence (P9WHJ3 whole entry): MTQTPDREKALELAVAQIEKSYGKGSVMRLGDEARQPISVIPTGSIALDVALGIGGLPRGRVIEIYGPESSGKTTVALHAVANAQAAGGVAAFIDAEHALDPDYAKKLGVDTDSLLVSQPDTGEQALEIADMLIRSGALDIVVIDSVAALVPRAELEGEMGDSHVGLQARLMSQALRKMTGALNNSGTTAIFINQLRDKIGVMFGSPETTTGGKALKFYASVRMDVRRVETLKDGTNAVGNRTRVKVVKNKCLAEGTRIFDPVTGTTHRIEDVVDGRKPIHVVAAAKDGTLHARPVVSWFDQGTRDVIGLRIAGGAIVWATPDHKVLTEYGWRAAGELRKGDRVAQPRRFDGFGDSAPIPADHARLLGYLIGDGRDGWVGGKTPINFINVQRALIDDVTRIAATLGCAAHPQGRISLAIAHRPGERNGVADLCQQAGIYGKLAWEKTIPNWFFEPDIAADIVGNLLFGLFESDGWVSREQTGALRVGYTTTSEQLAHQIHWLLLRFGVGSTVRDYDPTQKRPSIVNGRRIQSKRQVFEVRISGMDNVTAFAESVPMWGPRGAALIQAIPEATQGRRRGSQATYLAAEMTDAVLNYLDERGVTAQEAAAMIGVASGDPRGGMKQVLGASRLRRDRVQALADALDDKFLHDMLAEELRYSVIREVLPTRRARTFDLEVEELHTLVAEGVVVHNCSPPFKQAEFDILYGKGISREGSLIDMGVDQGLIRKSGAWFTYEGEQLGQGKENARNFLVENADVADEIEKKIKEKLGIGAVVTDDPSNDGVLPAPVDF
Kind of assay: Fluorescence Cell-Free Homogeneous Dose Retest to Identify Inhibitors of RecA-Intein Splicing Activity. [Related pubchem assays (depositor defined):AID2097, AID2223, AID489010, AID492950]. Type of assay: functional.

Another assay has as its target Paired box protein Pax-8 (Homo sapiens, UniProt Q06710). Description: PAX8 transcriptional activity inhibition in RMG-I – RMG-I cells, luciferase, cherry-pick, dose response (AID 687027).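 Further: luciferase reporter driven by Pax8 target thyroperoxidase promoter measured by SteadyGlo luminescence.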 Type of assay: functional, cell-based.
The nature of assay [4]: luciferase reporter signal suppression in cells – H4 neuroglioma cells, luminescence, dose response (AID 1990). Type of assay: functional, cell-based.
Assay [5] in a line: alpha-synuclein stem-loop luciferase translation blockers – H4 neuroglioma cells, luminescence, confirmation (AID 1988). Format: functional, cell-based.
The nature of assay [6]: Luminescence Cell-Based Dose Response HTS to Identify Inhibitors of 5'UTR Stem-Loop Driven Prion Protein mRNA Translation in H4 Neuroglioblastoma Cells. [Related pubchem assays: 1827 (Project Summary), 1813 (Primary HTS)]. Format: functional.

Activity calls are given as the source filed them. Bounds are passed on as bounds.

Cytochrome P450 2D6, sequence (P10635 whole entry): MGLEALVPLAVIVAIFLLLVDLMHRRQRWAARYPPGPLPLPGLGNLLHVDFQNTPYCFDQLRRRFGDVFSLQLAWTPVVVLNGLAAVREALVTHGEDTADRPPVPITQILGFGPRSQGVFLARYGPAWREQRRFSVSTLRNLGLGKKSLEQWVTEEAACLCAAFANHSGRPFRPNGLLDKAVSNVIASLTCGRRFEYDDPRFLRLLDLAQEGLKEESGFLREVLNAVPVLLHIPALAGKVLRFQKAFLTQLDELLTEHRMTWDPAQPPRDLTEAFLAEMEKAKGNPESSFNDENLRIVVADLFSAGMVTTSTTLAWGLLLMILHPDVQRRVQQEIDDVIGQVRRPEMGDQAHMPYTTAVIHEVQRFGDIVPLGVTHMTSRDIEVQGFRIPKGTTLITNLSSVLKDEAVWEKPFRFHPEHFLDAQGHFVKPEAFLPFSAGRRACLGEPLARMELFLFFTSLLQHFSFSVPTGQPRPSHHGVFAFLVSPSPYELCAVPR
Cytochrome P450 2C19, sequence (P33261 whole entry): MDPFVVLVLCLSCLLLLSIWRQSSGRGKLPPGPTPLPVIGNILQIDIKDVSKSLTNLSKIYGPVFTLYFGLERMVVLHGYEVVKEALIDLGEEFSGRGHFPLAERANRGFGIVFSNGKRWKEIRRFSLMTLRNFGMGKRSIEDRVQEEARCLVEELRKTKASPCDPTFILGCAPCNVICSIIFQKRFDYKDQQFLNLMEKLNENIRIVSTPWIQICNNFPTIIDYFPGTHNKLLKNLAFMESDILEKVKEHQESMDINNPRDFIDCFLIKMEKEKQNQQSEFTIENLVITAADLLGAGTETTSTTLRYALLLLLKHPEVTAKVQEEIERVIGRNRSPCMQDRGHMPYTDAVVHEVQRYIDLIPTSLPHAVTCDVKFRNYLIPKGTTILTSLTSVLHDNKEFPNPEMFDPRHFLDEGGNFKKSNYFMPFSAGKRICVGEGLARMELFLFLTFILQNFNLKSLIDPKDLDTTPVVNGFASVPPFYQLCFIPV
Paired box protein Pax-8, sequence (Q06710 whole entry): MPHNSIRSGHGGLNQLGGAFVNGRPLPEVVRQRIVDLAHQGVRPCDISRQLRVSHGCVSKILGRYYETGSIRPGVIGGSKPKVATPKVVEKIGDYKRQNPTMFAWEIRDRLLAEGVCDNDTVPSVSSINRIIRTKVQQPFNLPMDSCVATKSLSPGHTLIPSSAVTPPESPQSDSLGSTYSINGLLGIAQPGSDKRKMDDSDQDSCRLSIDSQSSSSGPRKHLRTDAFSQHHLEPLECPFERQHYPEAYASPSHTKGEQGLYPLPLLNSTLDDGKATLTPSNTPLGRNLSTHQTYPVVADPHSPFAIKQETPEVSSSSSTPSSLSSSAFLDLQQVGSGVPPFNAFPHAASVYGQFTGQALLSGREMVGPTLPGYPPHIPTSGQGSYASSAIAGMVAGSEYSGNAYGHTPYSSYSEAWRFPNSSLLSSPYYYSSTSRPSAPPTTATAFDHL
Cytochrome P450 3A4, sequence (P08684 whole entry): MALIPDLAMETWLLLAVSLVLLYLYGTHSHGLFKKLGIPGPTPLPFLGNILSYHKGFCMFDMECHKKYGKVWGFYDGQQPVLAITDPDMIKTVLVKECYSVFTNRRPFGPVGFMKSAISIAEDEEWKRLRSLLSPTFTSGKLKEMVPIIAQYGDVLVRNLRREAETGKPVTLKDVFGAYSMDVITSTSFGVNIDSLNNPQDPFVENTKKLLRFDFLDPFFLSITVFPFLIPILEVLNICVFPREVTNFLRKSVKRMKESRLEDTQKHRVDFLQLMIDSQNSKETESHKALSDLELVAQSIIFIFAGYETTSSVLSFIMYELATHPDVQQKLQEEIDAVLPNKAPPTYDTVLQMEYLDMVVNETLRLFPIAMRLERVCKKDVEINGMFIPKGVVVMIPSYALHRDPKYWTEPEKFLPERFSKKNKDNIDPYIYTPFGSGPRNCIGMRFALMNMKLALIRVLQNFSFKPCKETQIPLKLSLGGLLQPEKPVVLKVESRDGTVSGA
T3 sequence (P49327 whole entry): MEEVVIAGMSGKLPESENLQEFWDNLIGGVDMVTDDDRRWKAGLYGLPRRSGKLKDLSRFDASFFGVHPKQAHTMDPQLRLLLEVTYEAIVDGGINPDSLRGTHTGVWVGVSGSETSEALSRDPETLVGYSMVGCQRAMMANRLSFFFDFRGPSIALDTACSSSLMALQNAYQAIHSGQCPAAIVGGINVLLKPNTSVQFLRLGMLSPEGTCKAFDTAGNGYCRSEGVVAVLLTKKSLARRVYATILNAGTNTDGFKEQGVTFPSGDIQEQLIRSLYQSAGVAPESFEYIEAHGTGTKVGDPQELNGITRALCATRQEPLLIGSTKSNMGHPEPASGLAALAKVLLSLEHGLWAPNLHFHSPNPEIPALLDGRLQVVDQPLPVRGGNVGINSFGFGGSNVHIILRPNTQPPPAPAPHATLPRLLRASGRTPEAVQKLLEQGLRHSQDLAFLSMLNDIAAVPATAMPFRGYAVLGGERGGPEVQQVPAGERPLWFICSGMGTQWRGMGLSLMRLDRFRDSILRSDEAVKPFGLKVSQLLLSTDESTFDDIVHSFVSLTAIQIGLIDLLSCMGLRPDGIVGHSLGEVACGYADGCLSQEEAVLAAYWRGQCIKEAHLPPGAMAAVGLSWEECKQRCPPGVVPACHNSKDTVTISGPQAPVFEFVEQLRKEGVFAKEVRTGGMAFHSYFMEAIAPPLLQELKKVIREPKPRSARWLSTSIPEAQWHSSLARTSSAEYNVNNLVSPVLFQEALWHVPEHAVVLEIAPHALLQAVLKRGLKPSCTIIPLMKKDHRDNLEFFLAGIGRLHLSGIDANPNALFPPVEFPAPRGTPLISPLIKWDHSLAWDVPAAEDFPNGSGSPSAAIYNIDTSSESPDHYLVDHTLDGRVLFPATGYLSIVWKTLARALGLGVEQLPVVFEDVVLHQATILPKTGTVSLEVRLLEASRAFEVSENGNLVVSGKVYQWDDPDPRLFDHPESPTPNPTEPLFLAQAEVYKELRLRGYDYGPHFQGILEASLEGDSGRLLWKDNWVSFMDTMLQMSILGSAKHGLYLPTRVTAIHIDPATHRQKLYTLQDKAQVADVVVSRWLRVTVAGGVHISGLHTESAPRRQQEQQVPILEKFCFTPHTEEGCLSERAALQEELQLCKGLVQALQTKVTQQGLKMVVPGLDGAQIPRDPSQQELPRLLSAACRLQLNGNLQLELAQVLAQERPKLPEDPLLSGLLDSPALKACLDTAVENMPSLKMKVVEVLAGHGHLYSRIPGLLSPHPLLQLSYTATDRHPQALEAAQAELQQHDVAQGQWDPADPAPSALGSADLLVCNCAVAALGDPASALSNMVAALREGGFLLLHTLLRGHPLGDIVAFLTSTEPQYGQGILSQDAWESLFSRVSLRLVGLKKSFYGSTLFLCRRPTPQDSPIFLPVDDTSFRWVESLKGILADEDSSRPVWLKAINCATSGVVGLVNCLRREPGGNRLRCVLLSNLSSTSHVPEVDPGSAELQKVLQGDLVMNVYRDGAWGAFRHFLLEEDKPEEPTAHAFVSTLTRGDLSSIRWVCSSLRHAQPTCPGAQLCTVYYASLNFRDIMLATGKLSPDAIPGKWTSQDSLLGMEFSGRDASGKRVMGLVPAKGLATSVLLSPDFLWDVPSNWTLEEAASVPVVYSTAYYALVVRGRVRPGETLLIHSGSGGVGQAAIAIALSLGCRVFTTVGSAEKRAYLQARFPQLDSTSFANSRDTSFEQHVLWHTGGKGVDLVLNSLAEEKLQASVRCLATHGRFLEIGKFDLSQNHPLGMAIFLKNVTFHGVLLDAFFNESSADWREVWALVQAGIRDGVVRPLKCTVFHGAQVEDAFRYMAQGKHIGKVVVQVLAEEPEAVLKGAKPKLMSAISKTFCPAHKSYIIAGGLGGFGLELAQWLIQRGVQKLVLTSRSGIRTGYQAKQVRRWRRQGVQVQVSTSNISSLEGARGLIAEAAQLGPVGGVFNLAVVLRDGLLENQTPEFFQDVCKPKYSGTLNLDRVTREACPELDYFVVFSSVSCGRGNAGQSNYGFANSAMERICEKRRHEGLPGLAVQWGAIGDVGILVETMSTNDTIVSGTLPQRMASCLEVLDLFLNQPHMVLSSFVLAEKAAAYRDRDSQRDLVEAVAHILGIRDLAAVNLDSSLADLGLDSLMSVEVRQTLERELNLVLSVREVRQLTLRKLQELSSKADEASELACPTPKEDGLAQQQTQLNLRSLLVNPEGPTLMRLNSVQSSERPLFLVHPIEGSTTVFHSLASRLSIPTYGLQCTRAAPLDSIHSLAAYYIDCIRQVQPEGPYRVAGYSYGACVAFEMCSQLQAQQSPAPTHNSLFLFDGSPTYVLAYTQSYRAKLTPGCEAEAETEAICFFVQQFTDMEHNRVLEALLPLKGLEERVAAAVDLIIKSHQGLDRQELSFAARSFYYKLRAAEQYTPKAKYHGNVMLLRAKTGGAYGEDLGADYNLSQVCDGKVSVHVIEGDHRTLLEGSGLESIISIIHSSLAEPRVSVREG
Cytochrome P450 2C9, sequence (P11712 whole entry): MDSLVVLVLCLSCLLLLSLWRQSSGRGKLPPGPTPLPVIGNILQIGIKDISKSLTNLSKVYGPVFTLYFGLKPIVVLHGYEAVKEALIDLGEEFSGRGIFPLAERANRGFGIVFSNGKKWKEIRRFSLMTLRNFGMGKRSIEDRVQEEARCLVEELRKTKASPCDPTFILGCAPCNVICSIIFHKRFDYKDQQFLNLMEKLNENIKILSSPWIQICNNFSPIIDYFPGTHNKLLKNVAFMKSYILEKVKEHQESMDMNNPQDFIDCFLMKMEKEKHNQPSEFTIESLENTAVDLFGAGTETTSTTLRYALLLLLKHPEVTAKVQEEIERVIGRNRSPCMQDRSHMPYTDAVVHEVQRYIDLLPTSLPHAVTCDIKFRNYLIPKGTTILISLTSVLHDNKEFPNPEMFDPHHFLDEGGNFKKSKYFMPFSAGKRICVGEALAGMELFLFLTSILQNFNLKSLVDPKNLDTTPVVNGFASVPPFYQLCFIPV

`Cc1ccc(C)c(CN2C(=O)C3CCCN3c3ccc(S(=O)(=O)N4CCOCC4)cc32)c1` (stereo not given): the AC50 on Cytochrome P450 2C19 is 6.31 µM (inconclusive); at Cytochrome P450 2C9, 14.1 µM (inconclusive).

Consider `CC(=O)c1cccc(NC(=O)Nc2ccc3c(c2)N(C)C(=O)CS3)c1`, for which the IC50 with H9c2 was > 79 µM (inactive).

For `CC(=O)Nc1cc(-c2cccc(C(=O)N(C)C)c2)cn2c(-c3ccc(C(C)=O)cc3)cnc12`, in the assay with H9c2, the IC50 is > 79 µM (inactive).

Regarding `CC(C)n1nnnc1SCC(=O)NCc1ccc2c(c1)OCO2`, the values for the AC50 at Cytochrome P450 2D6, at Cytochrome P450 1A2 and at Cytochrome P450 2C9 were 25.1 µM (inconclusive), 12.6 µM (inconclusive) and 25.1 µM (inconclusive), respectively.

Consider `O=C(N/N=C/c1coc2ccc(Cl)cc2c1=O)c1ccc(O)cc1`, for which the AC50 in assay [1] is > 380 µM (inactive). The IC50 on Fatty acid synthase [2] was 6.64 µM (active); on Fatty acid synthase [3], 4.84 µM (active). In addition, the EC50 on Protein RecA was 16.1 µM (active).

As to `O=C(NCc1ccco1)c1cnn2c(C(F)(F)F)cc(-c3cccs3)nc12`, the IC50 in the assay with H9c2 was 34.1 µM (inactive).

Regarding `Nc1nc2c(ncn2[C@@H]2O[C@H](CO)[C@@H](O)[C@H]2O)c(=S)[nH]1` [THIOGUANOSINE], the AC50 at Paired box protein Pax-8 was 1.16 µM (active).

Turning to `COc1ccc(CCNC(=O)c2nnc(O)c3ccccc23)cc1`, the AC50 was 2.24 µM (inconclusive) on Cytochrome P450 2C19; 5.01 µM (inconclusive) on Cytochrome P450 2D6; 7.08 µM (inconclusive) on Cytochrome P450 1A2; 3.16 µM (inconclusive) at Cytochrome P450 2C9; 7.08 µM (inconclusive) on Cytochrome P450 3A4.

For the compound `CN1CCN(c2ncc3nc(CCc4ccccc4)c(=O)n(Cc4ccc(F)cc4)c3n2)CC1`, the AC50 at Cytochrome P450 2C9 was 12.6 µM (inconclusive).

Regarding `Cc1[nH]c2ccccc2c1/C=N/NC(=O)c1cc(-c2ccccc2)[nH]n1`, the IC50 with H9c2 was > 79 µM (inactive).

For the compound `COCCn1nnnc1C(C(C)C)N(Cc1cccnc1)Cc1cc2cc(OC)ccc2nc1O` (stereo not given), the IC50 with H9c2 is 21.8 µM (active).

Consider `CCn1cc(C(=O)N/N=C(/C)c2ccc(F)cc2)c(=O)c2cc(F)c(N3CCCC3)cc21`, for which the AC50 on Cytochrome P450 2C9 is 10 µM (inconclusive).

On to `C[C@H](CO)N1C[C@H](C)[C@@H](CN(C)Cc2ccc(Cl)c(Cl)c2)OCCCC[C@H](C)Oc2ccc(NC(=O)Nc3ccccc3)cc2C1=O`, for which, on Paired box protein Pax-8, the AC50 is 8.65 µM (active).

On to `CCCN(/C=N/c1sc2c(c1C#N)CCCCC2)CCC`, for which the AC50 at Cytochrome P450 2D6 was 15.8 µM (inconclusive); at Cytochrome P450 2C9, 12.6 µM (inconclusive).

As to `CC1(C)OC(=O)C(/C=N/CC(O)c2ccccc2)=C(O)O1` (stereo not given), the AC50 at Cytochrome P450 1A2 was 25.1 µM (inconclusive); at Cytochrome P450 2C9, 31.6 µM (inconclusive).

For the compound `Cc1c(NC(=O)C2CCN(S(=O)(=O)c3ccc(Cl)cc3)CC2)c(=O)n(-c2ccccc2)n1C`, the AC50 on Cytochrome P450 2C9 is 14.1 µM (inconclusive).

As for `O=C(Oc1ccccc1)N1CCC[C@@]2(CCN(Cc3ccccc3)C2)C1`, the AC50 on Cytochrome P450 2C19 is 20 µM (inconclusive); on Cytochrome P450 2D6, 20 µM (inconclusive); at Cytochrome P450 1A2, 15.8 µM (inconclusive); at Cytochrome P450 2C9 it was 20 µM (inconclusive); at Cytochrome P450 3A4, 15.8 µM (inconclusive).

Take `Cc1ccc(S(=O)(=O)N(C)C)cc1NC(=O)COC(=O)Cc1nnc(O)c2ccccc12`: the IC50 with H9c2 was > 79 µM (inactive).

For `O=C(CNC(=O)c1ccc(F)cc1)N/N=C/c1cc(Br)ccc1OC(=O)/C=C/c1ccco1`, the results for the EC50 in assay [4], in [5] and in assay [6] were 11.8 µM (active), 8.72 µM (active) and 12.1 µM (active), respectively. Moreover, the IC50 with H9c2 is 19 µM (active).

With `C[C@@H]1[C@H]2C=C[C@@H]1[C@@H](c1c3ccc(=O)c(O)c-3oc3c(O)c(O)ccc13)[C@@H]2C(=O)O`, the values for the AC50 at Cytochrome P450 2C19 and at Cytochrome P450 2C9 were 3.98 µM (inconclusive) and 7.94 µM (inconclusive), respectively.

On to `O=[N+]([O-])c1ccc(SNc2ccccc2)c([N+](=O)[O-])c1`, for which the IC50 is 10.4 µM (active) on Fatty acid synthase [2] and 9.38 µM (active) at Fatty acid synthase [3].

Turning to `CCCOc1ccc2[nH]c(C(=O)N/N=C/c3cc(OC)c(OC)c(OC)c3)cc2c1`, the AC50 at Paired box protein Pax-8 is 2.89 µM (active). Also, the IC50 with H9c2 was > 79 µM (inactive).

With `COc1ccc(NC(=O)CN(c2ccc([N+](=O)[O-])cc2)S(=O)(=O)c2ccccc2)c(OC)c1`, the IC50 at Fatty acid synthase [2] was 4.43 µM (active); on Fatty acid synthase [3] it was 5.78 µM (active).

Take `CCOc1ccccc1C1C(C#N)=C(N)Oc2[nH]nc(CC)c21` (stereo not given): the AC50 in assay [1] is 13.4 µM (active); at Cytochrome P450 2C9, 17.8 µM (inconclusive); at Cytochrome P450 3A4 it was 7.08 µM (inconclusive). For the same compound, the EC50 on Protein RecA is 7.04 µM (active).

Regarding `O=C(NCCCc1ccccc1)c1ccc([N+](=O)[O-])cc1Cl`, the IC50 on Fatty acid synthase [2] is 1.25 µM (active); on Fatty acid synthase [3], 1.31 µM (active).

Regarding `C[C@@H]1Oc2ccc(C(=O)C[C@@H](C(=O)O)c3ccc4c(c3)OCO4)cc2O1`, the AC50 at Cytochrome P450 2C19 was 5.01 µM (inconclusive); at Cytochrome P450 1A2, 0.794 µM (inconclusive); at Cytochrome P450 2C9 it was 6.31 µM (inconclusive).

For the compound `Cc1cccc(NC(=O)c2cc([N+](=O)[O-])ccc2N2CCN(C)CC2)c1`, the IC50 is 8.93 µM (active) at Fatty acid synthase [2] and 11.3 µM (active) on Fatty acid synthase [3].

For `C[C@@H](NC(=O)c1[nH]cnc1C(=O)NCC(=O)OCc1ccccc1)c1ccccc1`, the IC50 in the assay with H9c2 is > 79 µM (inactive).

In the case of `CC(=O)NC(CCc1ccc(Cl)c(Cl)c1)c1cccc(O)c(=O)c1` (stereo not given), the AC50 on Paired box protein Pax-8 is 2.08 µM (active). Also, the IC50 in the assay with H9c2 is > 79 µM (inactive).

By AC50 is commonly meant the concentration giving half of the maximal activity seen. The term IC50 denotes the point on the concentration scale where inhibition reaches its midpoint. In general, EC50 refers to the concentration that produces a half-maximal response.
